The results in this text go back to patent publication US6951843B2, “Peptide derivatives and their pharmaceutically acceptable salts, thereof, processes for preparation of both and use thereof” (priority 2000, dated 2005).

One data set deals with Lys-gingipain (KGP) (Porphyromonas gingivalis, UniProt B2RLK2). Here is the method:
Measurement of Inhibitory Activity Against KGP
The inhibitory activity against Lys-gingipain (KGP) was measured by the method described in Journal Biochemistry, Vol. 123, 305-312 (1998), using Z-His-Glu-Lys-MCA as a substrate. Specifically, the measurement was carried out in the following manner: 100 μl of 50 mM L-cystein, 200 μl of a 0.1 M sodium phosphate buffer solution (pH 7.5), 20 μl of 12.3 nM KGP solution containing 0.05% “Brij35” (a tradename of Aldrich, polyoxyethylene(23) lauryl ether), 80 μl of distilled water and 100 μl of a dimethyl sulfoxide solution of a compound according to the invention were mixed together, and preincubated at 37° C. for 5 minutes. Thereafter, 500 μl of a 0.1% dimethyl sulfoxide solution containing 20 μM Z-His-Glu-Lys-MCA was added, followed by incubation at 40° C. for 10 minutes. Then, an acetic acid buffer solution (pH 5.0) containing 10 mM iodoacetamide was added to stop the enzyme reaction, and the fluorescence intensity (F) at 460 nm excited at 380 nm was measured. […] The enzyme inhibitory activity (%) was calculated by the following equation. Enzyme inhibitory activity (%)=[1−(F/F0)]×100

Another data set relates to Arg-gingipain (RGP). Put plainly: Inhibitory activity against Arg-gingipain (RGP), substrate Z-Phe-Arg-MCA, for comparison. It counts as biochemical, Porphyromonas gingivalis. Conditions: compound concentration 10^−6 mol/l. Here is the method: Enzyme inhibitory activity (%)=[1−(F/F0)]×100
The inhibitory activity against Arg-gingipain (hereinafter referred to as “RGP”) was measured for comparison in a manner similar to the above, by the process described in Journal Biological Chemistry, Vol. 269, 21371-21378 (1994) using Z-Phe-Arg-MCA as a substrate.

[1] abbreviates: compound concentration 10^−6 mol/l.
[2] abbreviates: compound concentration 10^−9 mol/l.

Read-outs that look alike come from different tables or passages of the source.

With `CNC(=O)CC[C@H](NC(=O)OCc1ccccc1)C(=O)N[C@@H](CCCCN)C(=O)C(=O)NCc1ccccc1.Cl` [Example 44], the results for the “Enzyme inhibitory activity (%) KGP” value on Lys-gingipain (KGP) (setting [1]) and on Lys-gingipain (KGP) (setting [2]) were 100.0% and 97.3%, respectively. In addition, the “Enzyme inhibitory activity (%) RGP” value with Arg-gingipain (RGP) worked out at 1.9%.
Take `COC(=O)C(O)[C@H](CCCCNC(=O)OC(C)(C)C)NC(=O)[C@H](CCC(=O)OC(C)(C)C)NC(=O)OCc1ccccc1` (stereo partly drawn): the melting point (commonly the temperature of the solid-liquid transition) lay in the range of 101 to 103 °C.
For `CN(C)C(=O)[C@H](CC(N)=O)NC(=O)C(=O)[C@H](CCCCNC(=O)OC(C)(C)C)NC(=O)[C@H](CCC(=O)OC(C)(C)C)NC(=O)OCc1ccccc1`, the melting point was in the range of 122 to 124 °C.
`CCCNC(=O)C(=O)[C@H](CCCCNC(=O)OC(C)(C)C)NC(=O)[C@H](CCC(=O)OC(C)(C)C)NC(=O)OCc1ccccc1` had a melting point of 131 to 133 °C.
Consider `Cl.NCCCC[C@H](NC(=O)[C@H](CCC(=O)O)NC(=O)OCc1ccccc1)C(=O)C(=O)NCCc1ccccc1` [Example 42], for which the results for the “Enzyme inhibitory activity (%) KGP” value at Lys-gingipain (KGP) (setting [1]) and on Lys-gingipain (KGP) (setting [2]) were 98.0% and 67.0%, respectively. Besides, in the data set with Arg-gingipain (RGP), the “Enzyme inhibitory activity (%) RGP” value was determined as 7.7%.
As to `CC(C)C[C@H](NC(=O)C(=O)[C@H](CCCCNC(=O)OC(C)(C)C)NC(=O)[C@H](CCC(=O)OC(C)(C)C)NC(=O)OCc1ccccc1)C(=O)N(C)C`, the melting point was in the range of 119 to 122 °C.
Consider `CC(C)(C)OC(=O)NCCCC[C@H](NC(=O)[C@H](CCC(=O)NCCNC(=O)OC(C)(C)C)NC(=O)OCc1ccccc1)C(O)C(=O)NCc1ccccc1` (stereo partly drawn), for which the melting point lay in the range of 170 to 172 °C.
`CN(C)NC(=O)CC[C@H](NC(=O)OCc1ccccc1)C(=O)N[C@@H](CCCCN)C(=O)C(=O)NCc1ccccc1.Cl.Cl` [Example 48]: the “Enzyme inhibitory activity (%) KGP” value is 100.0% on Lys-gingipain (KGP) (setting [1]) and 98.2% at Lys-gingipain (KGP) (setting [2]). In addition, the “Enzyme inhibitory activity (%) RGP” value in the data set on Arg-gingipain (RGP) amounted to 4.1%.
Regarding `Cl.NCCCC[C@H](NC(=O)[C@H](CCC(=O)O)NC(=O)OCc1ccccc1)C(=O)C(=O)NCc1ccccc1` [Example 41], the “Enzyme inhibitory activity (%) KGP” value on Lys-gingipain (KGP) (setting [1]) was 99.7%; at Lys-gingipain (KGP) (setting [2]) it was 81.8%. Further, the “Enzyme inhibitory activity (%) RGP” value in the data set with Arg-gingipain (RGP) is given as 4.0%.
`CC(C)(C)OC(=O)NCCCC[C@H](NC(=O)[C@H](CCC(=O)NCCNC(=O)OC(C)(C)C)NC(=O)OCc1ccccc1)C(=O)C(=O)NCc1ccccc1` displayed a melting point of 157 to 159 °C.
Take `Cl.NCCCC[C@H](NC(=O)[C@H](CCC(=O)O)NC(=O)OCc1ccccc1)C(=O)C(=O)Nc1ccccc1` [Example 40]: the “Enzyme inhibitory activity (%) KGP” value on Lys-gingipain (KGP) (setting [1]) is 99.6%; at Lys-gingipain (KGP) (setting [2]), 71.3%. The “Enzyme inhibitory activity (%) RGP” value in the data set on Arg-gingipain (RGP) is 0.0%.
On the same counts, the results for `CN(C)C(=O)[C@H](CCC(=O)O)NC(=O)C(=O)[C@H](CCCCN)NC(=O)[C@H](CCC(=O)O)NC(=O)OCc1ccccc1.Cl` [Example 36] are 98.6%, 38.4% and 0.0%.
Compound `CN(C)C(=O)[C@H](CCCCNC(=O)OC(C)(C)C)NC(=O)C(=O)[C@H](CCCCNC(=O)OC(C)(C)C)NC(=O)[C@H](CCC(=O)OC(C)(C)C)NC(=O)OCc1ccccc1` registered a melting point of 152 to 155 °C.
Turning to `CN(C)C(=O)CC[C@H](NC(=O)OCc1ccccc1)C(=O)N[C@@H](CCCCN)C(=O)C(=O)NCc1ccccc1.Cl` [Example 45], the entries for the “Enzyme inhibitory activity (%) KGP” value on Lys-gingipain (KGP) (setting [1]) and on Lys-gingipain (KGP) (setting [2]) were 100.0% and 93.7%, respectively. Further, the “Enzyme inhibitory activity (%) RGP” value in the data set with Arg-gingipain (RGP) is listed as 0.0%.
Compound `CNC(=O)CC[C@H](NC(=O)OCc1ccccc1)C(=O)N[C@@H](CCCCNC(=O)OC(C)(C)C)C(O)C(=O)NCc1ccccc1` (stereo partly drawn) registered a melting point of 147 to 149 °C.
In turn, `CN(C)C(=O)[C@H](Cc1ccccc1)NC(=O)C(=O)[C@H](CCCCNC(=O)OC(C)(C)C)NC(=O)[C@H](CCC(=O)OC(C)(C)C)NC(=O)OCc1ccccc1` gave a melting point of 102 to 104 °C.
Take `CN(NC(=O)CC[C@H](NC(=O)OCc1ccccc1)C(=O)N[C@@H](CCCCNC(=O)OC(C)(C)C)C(O)C(=O)NCc1ccccc1)c1ccccc1` (stereo partly drawn): the melting point lay within 170 to 173 °C.
Same read-out and setting: then `CC(C)(C)OC(=O)CC[C@H](NC(=O)OCc1ccccc1)C(=O)N[C@@H](CCCCNC(=O)OC(C)(C)C)C(=O)C(=O)NCCc1ccccc1`, with 148 to 150 °C.
Consider `CCCNC(=O)C(=O)[C@H](CCCCN)NC(=O)[C@H](CCC(=O)O)NC(=O)OCc1ccccc1.Cl` [Example 39], for which the “Enzyme inhibitory activity (%) KGP” value on Lys-gingipain (KGP) (setting [1]) turned out to be 99.6%; at Lys-gingipain (KGP) (setting [2]), 71.9%. The “Enzyme inhibitory activity (%) RGP” value in the data set on Arg-gingipain (RGP) was 0.0%.
The compound `CN(C)NC(=O)CC[C@H](NC(=O)OCc1ccccc1)C(=O)N[C@@H](CCCCNC(=O)OC(C)(C)C)C(O)C(=O)NCc1ccccc1` (stereo partly drawn) registered a melting point of 123 to 125 °C.
Same read-out and setting: then `CN(C)C(=O)[C@H](Cc1ccccc1)NC(=O)C(O)[C@H](CCCCNC(=O)OC(C)(C)C)NC(=O)[C@H](CCC(=O)OC(C)(C)C)NC(=O)OCc1ccccc1` (single isomer, unassigned), with 132 to 134 °C; and `CNC(=O)CC[C@H](NC(=O)OCc1ccccc1)C(=O)N[C@@H](CCCCNC(=O)OC(C)(C)C)C(=O)C(=O)NCc1ccccc1`, with 189 to 192 °C.
As to `CN(C)C(=O)[C@H](Cc1ccccc1)NC(=O)C(=O)[C@H](CCCCN)NC(=O)[C@H](CCC(=O)O)NC(=O)OCc1ccccc1.Cl` [Example 34], the “Enzyme inhibitory activity (%) KGP” value was found to be 99.7% on Lys-gingipain (KGP) (setting [1]) and 40.6% on Lys-gingipain (KGP) (setting [2]). For the same compound, the “Enzyme inhibitory activity (%) RGP” value with Arg-gingipain (RGP) is reported as 5.7%.
Turning to `CCCNC(=O)C(O)[C@H](CCCCNC(=O)OC(C)(C)C)NC(=O)[C@H](CCC(=O)OC(C)(C)C)NC(=O)OCc1ccccc1` (stereo partly drawn), the melting point was in the range of 73 to 75 °C.
Compound `CC(C)(C)OC(=O)CC[C@H](NC(=O)OCc1ccccc1)C(=O)N[C@@H](CCCCNC(=O)OC(C)(C)C)C(O)C(=O)NCCc1ccccc1` (stereo partly drawn) showed a melting point of 82 to 85 °C.
Take `CC(C)(C)OC(=O)CC[C@H](NC(=O)OCc1ccccc1)C(=O)N[C@@H](CCCCNC(=O)OC(C)(C)C)C(O)C(=O)Nc1ccccc1` (single isomer, unassigned): the melting point is 146 to 147 °C.
As for `CN(C)C(=O)[C@H](CCC(=O)OC(C)(C)C)NC(=O)C(=O)[C@H](CCCCNC(=O)OC(C)(C)C)NC(=O)[C@H](CCC(=O)OC(C)(C)C)NC(=O)OCc1ccccc1`, the melting point was in the range of 127 to 130 °C.
As for `CC(C)(C)OC(=O)CC[C@H](NC(=O)OCc1ccccc1)C(=O)N[C@@H](CCCCNC(=O)OC(C)(C)C)C(O)C(=O)O` (stereo partly drawn), the melting point was 48 to 50 °C.
With `Cl.Cl.NCCCC[C@H](NC(=O)[C@H](CCC(=O)N1CCNCC1)NC(=O)OCc1ccccc1)C(=O)C(=O)NCc1ccccc1` [Example 47], the “Enzyme inhibitory activity (%) KGP” value was 100.0% at Lys-gingipain (KGP) (setting [1]) and 98.5% on Lys-gingipain (KGP) (setting [2]). Besides, in the data set with Arg-gingipain (RGP), the “Enzyme inhibitory activity (%) RGP” value was 6.4%.
Turning to `CN(C)C(=O)[C@H](CC(N)=O)NC(=O)C(O)[C@H](CCCCNC(=O)OC(C)(C)C)NC(=O)[C@H](CCC(=O)OC(C)(C)C)NC(=O)OCc1ccccc1` (stereo partly drawn), the melting point was in the range of 88 to 91 °C.
Same read-out and setting: then `CC(C)(C)OC(=O)NCCCC[C@H](NC(=O)[C@H](CCC(N)=O)NC(=O)OCc1ccccc1)C(O)C(=O)NCc1ccccc1` (stereo partly drawn), with 138 to 141 °C; and `CN(NC(=O)CC[C@H](NC(=O)OCc1ccccc1)C(=O)N[C@@H](CCCCNC(=O)OC(C)(C)C)C(=O)C(=O)NCc1ccccc1)c1ccccc1`, with 147 to 150 °C; and `CC(C)(C)OC(=O)NCCCC[C@H](NC(=O)[C@H](CCC(N)=O)NC(=O)OCc1ccccc1)C(=O)C(=O)NCc1ccccc1`, with 193 to 195 °C.
With `CN(NC(=O)CC[C@H](NC(=O)OCc1ccccc1)C(=O)N[C@@H](CCCCN)C(=O)C(=O)NCc1ccccc1)c1ccccc1.Cl.Cl` [Example 49], the “Enzyme inhibitory activity (%) KGP” value on Lys-gingipain (KGP) (setting [1]) came to 100.0%; on Lys-gingipain (KGP) (setting [2]), 99.0%. Further, in the data set with Arg-gingipain (RGP), the “Enzyme inhibitory activity (%) RGP” value amounted to 0.0%.
In turn, `CC(C)(C)OC(=O)CC[C@H](NC(=O)OCc1ccccc1)C(=O)N[C@@H](CCCCNC(=O)OC(C)(C)C)C(=O)C(=O)NCc1ccccc1` yielded a melting point of 130 to 132 °C.
Take `CC(C)C[C@H](NC(=O)C(=O)[C@H](CCCCN)NC(=O)[C@H](CCC(=O)O)NC(=O)OCc1ccccc1)C(=O)N(C)C.Cl` [Example 35]: the “Enzyme inhibitory activity (%) KGP” value is listed as 99.9% at Lys-gingipain (KGP) (setting [1]) and 50.6% on Lys-gingipain (KGP) (setting [2]). In addition, the “Enzyme inhibitory activity (%) RGP” value with Arg-gingipain (RGP) was determined as 3.7%.
On to `Cl.Cl.NCCCC[C@H](NC(=O)[C@H](CCC(=O)NCCN)NC(=O)OCc1ccccc1)C(=O)C(=O)NCc1ccccc1` [Example 46], for which the “Enzyme inhibitory activity (%) KGP” value at Lys-gingipain (KGP) (setting [1]) and at Lys-gingipain (KGP) (setting [2]) was 99.9% each time. For the same compound, the “Enzyme inhibitory activity (%) RGP” value in the data set with Arg-gingipain (RGP) was 0.5%.
As for `CN(C)C(=O)[C@H](CC(N)=O)NC(=O)C(=O)[C@H](CCCCN)NC(=O)[C@H](CCC(=O)O)NC(=O)OCc1ccccc1.Cl` [Example 37], the “Enzyme inhibitory activity (%) KGP” value on Lys-gingipain (KGP) (setting [1]) amounted to 99.9%; on Lys-gingipain (KGP) (setting [2]), 59.6%. For the same compound, the “Enzyme inhibitory activity (%) RGP” value in the data set with Arg-gingipain (RGP) amounted to 8.5%.
